We go through 28 compounds from patent US20050197350A1, “Novel quinoline, tetrahydroquinazoline, and pyrimidine derivatives and methods of treatment related to the use thereof” (TAISHO PHARMACEUTICAL CO., LTD., priority 2003, published 2005).

The experiment deals with MCH receptors. The experiment in a line: MCH receptor activity class (method not given). The conditions noted are these: class 1-3 by percent of control at 10^-7 M or IC50.

Consider `COc1cc(COC(=O)N[C@H]2CC[C@@H](Nc3nc4c(c(N(C)C)n3)CCCC4)CC2)c([N+](=O)[O-])cc1OC` [compound 555], for which the class is 3 (Class 3 The value of percent of control at 10^−7 M was more than 60% or the value of IC50 was more than 200 nM.). Then `CN(C)c1nc(N[C@H]2CC[C@@H](NC(=O)CCCOc3ccccc3)CC2)nc2c1CCCC2` [compound 556], with 3 (Class 3 The value of percent of control at 10^−7 M was more than 60% or the value of IC50 was more than 200 nM.).

Take `COc1ccc(Br)c(C(=O)N[C@H]2CC[C@@H](Nc3nc4c(c(N(C)C)n3)CCCC4)CC2)c1` [compound 557]: the class was 3 (Class 3 The value of percent of control at 10^−7 M was more than 60% or the value of IC50 was more than 200 nM.). For `CN(C)c1nc(N[C@H]2CC[C@@H](NC(=O)COc3c(F)c(F)c(F)c(F)c3F)CC2)nc2c1CCCC2` [compound 558] the value was 3 (Class 3 The value of percent of control at 10^−7 M was more than 60% or the value of IC50 was more than 200 nM.). Consider `COc1ccc(CC(=O)N[C@H]2CC[C@@H](Nc3nc4c(c(N(C)C)n3)CCCC4)CC2)cc1OC` [compound 559], for which the class is recorded as 3 (Class 3 The value of percent of control at 10^−7 M was more than 60% or the value of IC50 was more than 200 nM.).

With `CN(C)c1nc(N[C@H]2CC[C@@H](NC(=O)c3ccc(F)c(F)c3F)CC2)nc2c1CCCC2` [compound 560], the class is reported as 3 (Class 3 The value of percent of control at 10^−7 M was more than 60% or the value of IC50 was more than 200 nM.). Then `CN(C)c1nc(N[C@H]2CC[C@@H](NC(=O)C3CCCC3)CC2)nc2c1CCCC2` [compound 561], with 3 (Class 3 The value of percent of control at 10^−7 M was more than 60% or the value of IC50 was more than 200 nM.); and `CN(C)c1nc(N[C@H]2CC[C@@H](NC(=O)c3ccc(F)cc3F)CC2)nc2c1CCCC2` [compound 562], with 3 (Class 3 The value of percent of control at 10^−7 M was more than 60% or the value of IC50 was more than 200 nM.).

Take `CN(C)c1nc(N[C@H]2CC[C@@H](NC(=O)CCc3ccccc3)CC2)nc2c1CCCC2` [compound 563]: the class is listed as 3 (Class 3 The value of percent of control at 10^−7 M was more than 60% or the value of IC50 was more than 200 nM.). In the case of `CN(C)c1nc(N[C@H]2CC[C@@H](NC(=O)c3cc(F)c(F)c(F)c3F)CC2)nc2c1CCCC2` [compound 564], the class is reported as 3 (Class 3 The value of percent of control at 10^−7 M was more than 60% or the value of IC50 was more than 200 nM.). For `CCOc1ccc2ccccc2c1C(=O)N[C@H]1CC[C@@H](Nc2nc3c(c(N(C)C)n2)CCCC3)CC1` [compound 565] the value was 3 (Class 3 The value of percent of control at 10^−7 M was more than 60% or the value of IC50 was more than 200 nM.). Then `CN(C)c1nc(N[C@H]2CC[C@@H](NC(=O)c3c(F)c(F)c(F)c(F)c3F)CC2)nc2c1CCCC2` [compound 566], with 3 (Class 3 The value of percent of control at 10^−7 M was more than 60% or the value of IC50 was more than 200 nM.); and `CN(C)c1nc(N[C@H]2CC[C@@H](NC(=O)c3ccc(SC(F)(F)F)cc3)CC2)nc2c1CCCC2` [compound 567], with 3 (Class 3 The value of percent of control at 10^−7 M was more than 60% or the value of IC50 was more than 200 nM.). Then `CN(C)c1nc(N[C@H]2CC[C@@H](NC(=O)c3sc(Cl)c(Cl)c3Cl)CC2)nc2c1CCCC2` [compound 568], with 3 (Class 3 The value of percent of control at 10^−7 M was more than 60% or the value of IC50 was more than 200 nM.).

Regarding `CN(C)c1nc(N[C@H]2CC[C@@H](NC(=O)COc3cccc(Cl)c3)CC2)nc2c1CCCC2` [compound 569], the class was 1 (Class 1: The value of percent of control at 10^−7 M was less than 40% or the value of IC50 was less than 50 nM.). Turning to `Cc1onc(-c2c(Cl)cccc2Cl)c1C(=O)N[C@H]1CC[C@@H](Nc2nc3c(c(N(C)C)n2)CCCC3)CC1` [compound 570], the class is 1 (Class 1: The value of percent of control at 10^−7 M was less than 40% or the value of IC50 was less than 50 nM.). As to `CN(C)c1nc(N[C@H]2CC[C@@H](NC(=O)c3cccnc3Oc3ccccc3)CC2)nc2c1CCCC2` [compound 571], the class is reported as 2 (Class 2: The value of percent of control at 10^−7 M was from 40% to 60% or the value of IC′50 was from 50 nM to 200 nM.).

As to `CN(C)c1nc(N[C@H]2CC[C@@H](NC(=O)c3cccnc3Sc3ccccc3)CC2)nc2c1CCCC2` [compound 572], the class is listed as 3 (Class 3 The value of percent of control at 10^−7 M was more than 60% or the value of IC50 was more than 200 nM.). With `Cc1ccc(Oc2ncccc2C(=O)N[C@H]2CC[C@@H](Nc3nc4c(c(N(C)C)n3)CCCC4)CC2)cc1` [compound 573], the class is reported as 1 (Class 1: The value of percent of control at 10^−7 M was less than 40% or the value of IC50 was less than 50 nM.).

Regarding `CCCN(CCC)S(=O)(=O)c1ccc(C(=O)N[C@H]2CC[C@@H](Nc3nc4c(c(N(C)C)n3)CCCC4)CC2)cc1` [compound 574], the class is on record as 3 (Class 3 The value of percent of control at 10^−7 M was more than 60% or the value of IC50 was more than 200 nM.). With `CN(C)c1nc(N[C@H]2CC[C@@H](NC(=O)C(C)(C)Oc3ccc(Cl)cc3)CC2)nc2c1CCCC2` [compound 575], the class was 3 (Class 3 The value of percent of control at 10^−7 M was more than 60% or the value of IC50 was more than 200 nM.). Then `CN(C)c1nc(N[C@H]2CC[C@@H](NC(=O)c3cc(-c4ccc(Cl)cc4)oc3C(F)(F)F)CC2)nc2c1CCCC2` [compound 576], with 3 (Class 3 The value of percent of control at 10^−7 M was more than 60% or the value of IC50 was more than 200 nM.). Consider `CN(C)c1nc(N[C@H]2CC[C@@H](NC(=O)c3cc(C(C)(C)C)nn3Cc3ccc(Cl)cc3Cl)CC2)nc2c1CCCC2` [compound 577], for which the class is on record as 3 (Class 3 The value of percent of control at 10^−7 M was more than 60% or the value of IC50 was more than 200 nM.). Turning to `CN(C)c1nc(N[C@H]2CC[C@@H](NC(=O)C3=Cc4cc(Cl)ccc4OC3)CC2)nc2c1CCCC2` [compound 578], the class is recorded as 3 (Class 3 The value of percent of control at 10^−7 M was more than 60% or the value of IC50 was more than 200 nM.).

With `CN(C)c1nc(N[C@H]2CC[C@@H](NC(=O)c3ccc(OC(F)(F)F)c(Cl)c3)CC2)nc2c1CCCC2` [compound 579], the class is recorded as 3 (Class 3 The value of percent of control at 10^−7 M was more than 60% or the value of IC50 was more than 200 nM.). Then `Cc1cc(=O)oc2c(OCC(=O)N[C@H]3CC[C@@H](Nc4nc5c(c(N(C)C)n4)CCCC5)CC3)cccc12` [compound 580], with 3 (Class 3 The value of percent of control at 10^−7 M was more than 60% or the value of IC50 was more than 200 nM.). For `CN(C)c1nc(N[C@H]2CC[C@@H](NC(=O)c3csc(-c4cccs4)n3)CC2)nc2c1CCCC2` [compound 581] the value was 2 (Class 2: The value of percent of control at 10^−7 M was from 40% to 60% or the value of IC′50 was from 50 nM to 200 nM.).

Take `COc1cccc(C(=O)NC[C@H]2CC[C@@H](Nc3nc4c(c(N(C)C)n3)CCCC4)CC2)c1` [compound 582]: the class is reported as 3 (Class 3 The value of percent of control at 10^−7 M was more than 60% or the value of IC50 was more than 200 nM.).
